Measured values reported in the supplement of paper PMC4862054.

How the values were obtained:
Details in all cases: incubation time: 72 h
HCC1599 [1] = assay: normalised viability (% of control), CellTiter-Blue; higher = more viable cells (about 100 = DMSO control)
Summary of the method: (§1)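 Plates were quality-checked by Z'-factor and normalised to vehicle (100) and a positive kill control (0). The underlying assay incubated breast cancer cell lines for 72 h on 384-well plates with compound, then added 2.5 µl CellTiter-Blue for 2 h at 37 °C and read at 560/590 nm. The value is normalised viability at a single listed concentration of the series.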

BT-549 [2] = assay: as above
Summary of the method: as §1

CAL-85-1 [3] = assay: as above
Summary of the method: as §1

HCC1143 [4] = assay: as above
Summary of the method: as §1

MDA-MB-436 [5] = assay: as above
Summary of the method: as §1

MDA-MB-231 [6] = assay: as above
Summary of the method: as §1

MDA-MB-453 = assay: normalised response (% of control), CellTiter-Glo; higher = more viable cells (100 = DMSO, 0 = benzethonium chloride kill control)
Summary of the method: (§2)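 After 72 h with compound in 384-well plates, breast cancer cell lines seeded as 20 µl suspension were read for CellTox Green fluorescence at 485/520 nm. CellTiter-Glo luminescence was then read after 10 min at room temperature. Compound was present at 5 concentrations in 10-fold steps over a 10,000-fold range set per compound, and plates were normalised to 0.1 % DMSO (100) and a positive kill control (0). Values are normalised signals, each at a single concentration.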

CAL-51 = assay: as above
Summary of the method: as §2

MFM-223 = assay: as above
Summary of the method: as §2

HDQ-P1 = assay: as above
Summary of the method: as §2

CAL-148 = assay: as above
Summary of the method: as §2

BT-474 = assay: as above
Summary of the method: as §2

DU-4475 = assay: as above
Summary of the method: as §2

Hs578T = assay: as above
Summary of the method: as §2

CAL-120 = assay: as above
Summary of the method: as §2

SK-BR-3 = assay: as above
Summary of the method: as §2

HCC1599 [7] = assay: as above
Summary of the method: as §2

MCF-10A = assay: as above
Summary of the method: as §2

BT-549 [8] = assay: as above
Summary of the method: as §2

CAL-85-1 [9] = assay: as above
Summary of the method: as §2

HCC1937 = assay: as above
Summary of the method: as §2

MDA-MB-468 = assay: as above
Summary of the method: as §2

HCC1143 [10] = assay: as above
Summary of the method: as §2

MDA-MB-436 [11] = assay: as above
Summary of the method: as §2

MDA-MB-231 [12] = assay: as above
Summary of the method: as §2

Compound	normalised viability (HCC1599 [1]; 10 nM) [%]	normalised viability (HCC1599 [1]; 1000 nM) [%]	normalised viability (HCC1599 [1]; 10000 nM) [%]	normalised viability (BT-549 [2]; 10 nM) [%]	normalised viability (BT-549 [2]; 1000 nM) [%]	normalised viability (BT-549 [2]; 10000 nM) [%]	normalised viability (CAL-85-1 [3]; 3 nM) [%]	normalised viability (CAL-85-1 [3]; 30 nM) [%]	normalised viability (CAL-85-1 [3]; 100 nM) [%]	normalised viability (HCC1143 [4]; 10 nM) [%]	normalised viability (HCC1143 [4]; 1000 nM) [%]	normalised viability (HCC1143 [4]; 10000 nM) [%]	normalised viability (MDA-MB-436 [5]; 10 nM) [%]	normalised viability (MDA-MB-436 [5]; 1000 nM) [%]	normalised viability (MDA-MB-436 [5]; 10000 nM) [%]	normalised viability (MDA-MB-231 [6]; 10 nM) [%]	normalised viability (MDA-MB-231 [6]; 1000 nM) [%]	normalised viability (MDA-MB-231 [6]; 10000 nM) [%]	normalised response (MDA-MB-453) [%]	normalised response (CAL-51) [%]	other results
O=P1(NCCCl)OCCCN1CCCl (stereo not given) [Ifosfamide]	100	93.9	89.7	79.4	90.8	96.7	88.3	89.1	95.7	80.1	82.4	91.1	96.6	109	102	101	97.3	109	–	–	–
Clc1ccc(Nc2nnc(Cc3ccncc3)c3ccccc23)cc1 [Vatalanib]	116	115	113	87.3	88.2	85.9	90	87.6	93.4	80.5	87.2	79.6	106	97.5	85.2	90.1	90.8	85.1	–	–	–
C=C(c1ccc(C(=O)O)cc1)c1cc2c(cc1C)C(C)(C)CCC2(C)C [Bexarotene] (1000 nM)	–	–	–	–	–	–	–	–	–	–	–	–	–	–	–	–	–	–	103	111	normalised response (MFM-223): 102%; normalised response (HDQ-P1): 104%; normalised response (CAL-148): 86.4%; normalised response (BT-474): 87.8%; normalised response (DU-4475): 103%; normalised response (Hs578T): 94.9%; normalised response (CAL-120): 104%; normalised response (SK-BR-3): 80%; normalised response (HCC1599 [7]): 57.6%; normalised response (MCF-10A): 81.8%; normalised response (BT-549 [8]): 102%; normalised response (CAL-85-1 [9]): 102%; normalised response (HCC1937): 102%; normalised response (MDA-MB-468): 103%; normalised response (HCC1143 [10]): 102%; normalised response (MDA-MB-436 [11]): 99.4%; normalised response (MDA-MB-231 [12]): 106%
N[C@@H](CSC(c1ccccc1)(c1ccccc1)c1ccccc1)C(=O)O [S-trityl-L-cysteine]	–	–	–	–	–	–	–	–	–	–	–	–	–	–	–	–	–	–	–	–	normalised viability (HCC1599 [1]; 40 nM): 94.9%; normalised viability (HCC1599 [1]; 4000 nM): 99.3%; normalised viability (HCC1599 [1]; 40000 nM): 102%; normalised viability (BT-549 [2]; 40 nM): 83.3%; normalised viability (BT-549 [2]; 4000 nM): 92.2%; normalised viability (BT-549 [2]; 40000 nM): 24%; normalised viability (CAL-85-1 [3]; 12 nM): 105%; normalised viability (CAL-85-1 [3]; 120 nM): 106%; normalised viability (CAL-85-1 [3]; 400 nM): 101%; normalised viability (HCC1143 [4]; 40 nM): 134%; normalised viability (HCC1143 [4]; 4000 nM): 113%; normalised viability (HCC1143 [4]; 40000 nM): 58.6%; normalised viability (MDA-MB-436 [5]; 40 nM): 90.2%; normalised viability (MDA-MB-436 [5]; 4000 nM): 78.6%; normalised viability (MDA-MB-436 [5]; 40000 nM): 58.2%; normalised viability (MDA-MB-231 [6]; 40 nM): 86.8%; normalised viability (MDA-MB-231 [6]; 4000 nM): 27.9%; normalised viability (MDA-MB-231 [6]; 40000 nM): 25.9%
CNCc1ccc(-c2[nH]c3cc(F)cc4c3c2CCNC4=O)cc1 [Rucaparib] (1000 nM)	–	–	–	–	–	–	–	–	–	–	–	–	–	–	–	–	–	–	100	106	normalised response (MFM-223): 96.3%; normalised response (HDQ-P1): 98.8%; normalised response (CAL-148): 95.3%; normalised response (BT-474): 92.3%; normalised response (DU-4475): 97.6%; normalised response (Hs578T): 107%; normalised response (CAL-120): 105%; normalised response (SK-BR-3): 86.7%; normalised response (HCC1599 [7]): 94.4%; normalised response (MCF-10A): 101%; normalised response (BT-549 [8]): 100%; normalised response (CAL-85-1 [9]): 110%; normalised response (HCC1937): 105%; normalised response (MDA-MB-468): 93.5%; normalised response (HCC1143 [10]): 94.1%; normalised response (MDA-MB-436 [11]): 88.8%; normalised response (MDA-MB-231 [12]): 99%
C#Cc1cccc(Nc2ncnc3cc(OCCOC)c(OCCOC)cc23)c1 [Erlotinib] (1000 nM)	–	–	–	–	–	–	–	–	–	–	–	–	–	–	–	–	–	–	107	80.3	normalised response (MFM-223): 100%; normalised response (HDQ-P1): 69.3%; normalised response (CAL-148): 82.1%; normalised response (BT-474): 96.3%; normalised response (DU-4475): 104%; normalised response (Hs578T): 99.8%; normalised response (CAL-120): 93.5%; normalised response (SK-BR-3): 97.5%; normalised response (HCC1599 [7]): 100%; normalised response (MCF-10A): 37.1%; normalised response (BT-549 [8]): 100%; normalised response (CAL-85-1 [9]): 60.2%; normalised response (HCC1937): 93.4%; normalised response (MDA-MB-468): 82.9%; normalised response (HCC1143 [10]): 94.7%; normalised response (MDA-MB-436 [11]): 99.9%; normalised response (MDA-MB-231 [12]): 102%
C[C@]12CC[C@@H]3c4ccc(O)cc4C[C@@H](CCCCCCCCC[S+]([O-])CCCC(F)(F)C(F)(F)F)[C@H]3[C@@H]1CC[C@@H]2O (stereo not given in full) [Fulvestrant]	93.9	82.6	92.4	74.7	86.5	74.8	91.8	91.7	90.3	76.6	81.5	78.1	94.4	97.5	90.6	105	99.7	90.2	–	–	–
NCC(=O)CCC(=O)O [Aminolevulinic acid]	84.3	86.5	90.8	85.6	84.1	90	99.9	87.1	98.8	81.1	82.6	85.2	99.1	102	96.5	107	93.2	111	–	–	–
CC(=O)Nc1ccc(C(=O)Nc2ccccc2N)cc1 [CI-994]	–	84.8	–	–	112	–	104	–	–	–	101	–	–	94.8	–	–	115	–	–	–	normalised viability (HCC1599 [1]; 1 nM): 104%; normalised viability (HCC1599 [1]; 100 nM): 99.8%; normalised viability (BT-549 [2]; 1 nM): 116%; normalised viability (BT-549 [2]; 100 nM): 97%; normalised viability (CAL-85-1 [3]; 0.3 nM): 104%; normalised viability (CAL-85-1 [3]; 10 nM): 101%; normalised viability (HCC1143 [4]; 1 nM): 113%; normalised viability (HCC1143 [4]; 100 nM): 118%; normalised viability (MDA-MB-436 [5]; 1 nM): 98.7%; normalised viability (MDA-MB-436 [5]; 100 nM): 97.2%; normalised viability (MDA-MB-231 [6]; 1 nM): 104%; normalised viability (MDA-MB-231 [6]; 100 nM): 101%
